Reference: ChEMBL document CHEMBL5532643, “Design and synthesis of etrasimod derivatives as potent antibacterial agents against Gram-positive bacteria” (Eur J Med Chem, 2024)
≈ marks a conversion by molar mass, not a printed value. Where “and” joins values, the source holds several entries; their conditions need not be identical. Identical values can stand only once. Calls of active or inactive are those of the source. The calls are words filed in the database; no cut-off is given here.

How the values were obtained:
[1] = tested on: Staphylococcus aureus; experiment: Bactericidal activity against Staphylococcus aureus ATCC 25923 assessed as log reduction in colony forming units at 0.5 to 8 times MIC measured after 24 hrs by time kill-assay; format: functional
[2] = tested on: Enterococcus faecalis; experiment: Synergistic antibacterial activity against Enterococcus faecalis ATCC 29212 incubated for 18 to 20 hrs in presence of vancomycin by checkboard assay; format: functional; conditions: time 18-20 hrs
[3] = tested on: A549; experiment: Cytotoxicity against human A549 cells assessed as reduction in cell viability at 100 uM incubated for 24 hrs by resazurin staining based analysis relative to control; format: functional
[4] = tested on: Enterococcus faecalis; experiment: Synergistic antibacterial activity against Enterococcus faecalis ATCC 29212 assessed as ciprofloxacin MIC incubated for 18 to 20 hrs by checkboard assay; format: functional; conditions: time 18-20 hrs
[5] = tested on: Staphylococcus aureus; experiment: Synergistic antibacterial activity against Staphylococcus aureus ATCC 25923 incubated for 18 to 20 hrs in presence of linezolid by checkboard assay; format: functional; conditions: time 18-20 hrs
[6] = tested on: Staphylococcus aureus; experiment: Synergistic antibacterial activity against methicillin-resistant Staphylococcus aureus ATCC 43300 assessed as linezolid MIC incubated for 18 to 20 hrs by checkboard assay; format: functional; conditions: time 18-20 hrs
[7] = tested on: Staphylococcus aureus; experiment: Synergistic antibacterial activity against Staphylococcus aureus ATCC 25923 incubated for 18 to 20 hrs in presence of gentamicin by checkboard assay; format: functional; conditions: time 18-20 hrs
[8] = tested on: A549; experiment: Cytotoxicity against human A549 cells assessed as reduction in cell viability incubated for 24 hrs by resazurin staining based analysis; format: functional
[9] = tested on: Enterococcus faecalis; experiment: Synergistic antibacterial activity against Enterococcus faecalis ATCC 29212 incubated for 18 to 20 hrs in presence of gentamicin by checkboard assay; format: functional; conditions: time 18-20 hrs
[10] = tested on: Enterococcus faecium; experiment: Antibacterial activity against vancomycin-resistant Enterococcus faecium ATCC 700221 assessed as reduction in bacterial growth incubated for 18 to 20 hrs by broth microdilution assay; format: functional; conditions: time 18-20 hrs
[11] = tested on: Enterococcus faecalis; experiment: Synergistic antibacterial activity against Enterococcus faecalis ATCC 29212 assessed as linezolid MIC incubated for 18 to 20 hrs by checkboard assay; format: functional; conditions: time 18-20 hrs
[12] = tested on: Staphylococcus aureus; experiment: Synergistic antibacterial activity against methicillin-resistant Staphylococcus aureus ATCC 43300 incubated for 18 to 20 hrs in presence of ciprofloxacin by checkboard assay; format: functional; conditions: time 18-20 hrs
[13] = tested on: Enterococcus faecalis; experiment: Synergistic antibacterial activity against Enterococcus faecalis ATCC 29212 assessed as fractional inhibitory concentration index incubated for 18 to 20 hrs in presence of vancomycin by checkboard assay; format: functional; conditions: time 18-20 hrs
[14] = tested on: Staphylococcus aureus; experiment: Synergistic antibacterial activity against methicillin-resistant Staphylococcus aureus ATCC 43300 assessed as ciprofloxacin MIC incubated for 18 to 20 hrs by checkboard assay; format: functional; conditions: time 18-20 hrs
[15] = tested on: Staphylococcus aureus; experiment: Antibacterial activity against Staphylococcus aureus ATCC 25923 assessed as inhibition of bacterial growth at 40 uM incubated for 18 to 24 hrs by broth microdilution assay relative to control; format: functional; conditions: time 18-24 hrs
[16] = tested on: Staphylococcus aureus; experiment: Antibacterial activity against […] Staphylococcus aureus ATCC 43300 assessed as reduction in bacterial growth incubated for 18 to 20 hrs by broth microdilution assay; format: functional; conditions: time 18-20 hrs
[17] = tested on: Staphylococcus aureus; experiment: Bactericidal activity against Staphylococcus aureus ATCC 25923 assessed as reduction in viable bacterial count incubated for 2 hrs by time-kill assay; format: functional, organism-based
[18] = tested on: Enterococcus faecalis; experiment: Bactericidal activity against Enterococcus faecalis ATCC 29212 assessed as reduction in bacterial growth at 0.5 to 8 times MIC incubated for 24 hrs by time-kill assay; format: functional
[19] = tested on: Staphylococcus aureus; experiment: Bactericidal activity against Staphylococcus aureus ATCC 25923 assessed as log reduction in colony forming units at 4 to 8 times MIC measured after 1 to 2 hrs by time kill-assay; format: functional; conditions: time 1-2 hrs
[20] = tested on: Staphylococcus aureus; experiment: Antibacterial activity against Staphylococcus aureus ATCC 25923 assessed as reduction in bacterial growth incubated for 18 to 20 hrs by broth microdilution assay; format: functional; conditions: time 18-20 hrs
[21] = tested on: Staphylococcus aureus; experiment: Synergistic antibacterial activity against Staphylococcus aureus ATCC 25923 assessed as fractional inhibitory concentration index incubated for 18 to 20 hrs in presence of ciprofloxacin by checkboard assay; format: functional; conditions: time 18-20 hrs
[22] = Selectivity index, ratio of CC50 for cytotoxicity against human THP-1 cells assessed as reduction in cell viability to MIC for antibacterial activity against methicillin-resistant Enterococcus faecium assessed as reduction in bacterial growth; format: toxicity, cell-based; conditions: read-out: Selectivity Index
[23] = tested on: Staphylococcus aureus; experiment: Antibacterial activity against Staphylococcus aureus ATCC 43300 assessed as reduction in bacterial growth incubated for 18 to 20 hrs by broth microdilution assay; format: functional; conditions: time 18-20 hrs
[24] = tested on: Enterococcus faecalis; experiment: Antibacterial activity against vancomycin-resistant Enterococcus faecalis ATCC 51575 assessed as reduction in bacterial growth incubated for 18 to 20 hrs by broth microdilution assay; format: functional; conditions: time 18-20 hrs
[25] = tested on: Staphylococcus aureus; experiment: Antibiofilm activity against Staphylococcus aureus ATCC 25923 assessed as inhibition of biofilm biomass at 100 uM incubated for 18 to 20 hrs by crystal violet staining based assay; format: functional; conditions: time 18-20 hrs
[26] = tested on: Staphylococcus aureus; experiment: Synergistic antibacterial activity against Staphylococcus aureus ATCC 25923 assessed as ciprofloxacin MIC incubated for 18 to 20 hrs by checkboard assay; format: functional; conditions: time 18-20 hrs
[27] = Hemolytic activity in mouse RBC assessed as hemolysis at 125 uM incubated for 1 hr; format: toxicity, cell-based, Erythrocyte; conditions: mouse red blood cells (erythrocytes), read-out: Activity
[28] = tested on: Staphylococcus aureus; experiment: Synergistic antibacterial activity against Staphylococcus aureus ATCC 25923 incubated for 18 to 20 hrs in presence of ciprofloxacin by checkboard assay; format: functional; conditions: time 18-20 hrs
[29] = tested on: Staphylococcus aureus; experiment: Bactericidal activity against Staphylococcus aureus ATCC 25923 assessed as log reduction in colony forming units at 0.5 to 8 times MIC measured after 6 hrs by time kill-assay; format: functional
[30] = tested on: Staphylococcus aureus; experiment: Synergistic antibacterial activity against Staphylococcus aureus ATCC 25923 assessed as gentamicin MIC incubated for 18 to 20 hrs by checkboard assay; format: functional; conditions: time 18-20 hrs
[31] = Selectivity index, ratio of CC50 for cytotoxicity against human THP-1 cells assessed as reduction in cell viability to MIC for antibacterial activity against methicillin-resistant Enterococcus faecalis assessed as reduction in bacterial growth; format: toxicity, cell-based; conditions: read-out: Selectivity Index
[32] = tested on: Staphylococcus aureus; experiment: Drug resistance, ratio of MIC for Staphylococcus aureus ATCC 25923 after 20 days exposure to MIC for Staphylococcus aureus ATCC 25923 during first exposure; format: functional; conditions: time 20 day
[33] = tested on: Staphylococcus aureus; experiment: Synergistic antibacterial activity against methicillin-resistant Staphylococcus aureus ATCC 43300 incubated for 18 to 20 hrs in presence of linezolid by checkboard assay; format: functional; conditions: time 18-20 hrs
[34] = tested on: Staphylococcus aureus; experiment: Synergistic antibacterial activity against methicillin-resistant Staphylococcus aureus ATCC 43300 incubated for 18 to 20 hrs in presence of vancomycin by checkboard assay; format: functional; conditions: time 18-20 hrs
[35] = tested on: Staphylococcus aureus; experiment: Synergistic antibacterial activity against methicillin-resistant Staphylococcus aureus ATCC 43300 assessed as fractional inhibitory concentration index incubated for 18 to 20 hrs in presence of vancomycin by checkboard assay; format: functional; conditions: time 18-20 hrs
[36] = tested on: Enterococcus faecalis; experiment: Synergistic antibacterial activity against Enterococcus faecalis ATCC 29212 assessed as fractional inhibitory concentration index incubated for 18 to 20 hrs in presence of gentamicin by checkboard assay; format: functional; conditions: time 18-20 hrs
[37] = tested on: Cell membrane; experiment: Induction of cytoplasmic membrane depolarization in Staphylococcus aureus ATCC 25923 assessed as increase in fluorescence intensity at 4 times MIC measured for 30 mins by DiSC3(5) dye based fluorescence method; format: cell membranes
[38] = Selectivity index, ratio of CC50 for cytotoxicity against human THP-1 cells assessed as reduction in cell viability to MIC for antibacterial activity against Staphylococcus aureus assessed as reduction in bacterial growth; format: toxicity, cell-based; conditions: read-out: Selectivity Index

Compound: O=C(O)c1cc2cc(OCc3ccc(C4CCCCC4)c(C(F)(F)F)c3)ccc2[nH]1
- log(activity) [1]: >5
- MIC [2]: 5 µM
- Activity [3]: ~20%
- MIC [4]: 1.25 µM
- MIC [5]: 2.5 µM
- MIC [6]: 5 µM
- MIC [7]: 1.25 µM
- CC50 [8]: > 100 µM
- MIC [9]: 1.25 µM
- MIC [10]: 5 µM (≈ 2.09 µg/mL)
- MIC [11]: 10 µM
- MIC [12]: 1.25 µM
- fractional inhibitory concentration index (FICI) [13]: 2
- MIC [14]: 1.25 µM
- inhibition at 40 µM [15]: ≤ 90%
- MIC [16]: 2.5 µM (≈ 1.04 µg/mL)
- Activity [17]: Dose-Dependent Effect
- MBC [18]: 5 µM (≈ 2.09 µg/mL)
- log(activity) [19]: >3
- MIC [20]: 5 µM and 2.1 µg/mL
- fractional inhibitory concentration index (FICI) [21]: 0.625
- selectivity ratio [22]: > 12
- MIC [23]: 2.5 µM (≈ 1.04 µg/mL)
- MIC [24]: 10 µM (≈ 4.17 µg/mL)
- inhibition at 100 µM [25]: > 90%
- MIC [26]: 0.312 µM
- hemolysis at 1 h, 125 µM [27]: 57%
- MIC [28]: 2.5 µM
- log(activity) [29]: >3
- MIC [30]: 0.5 µg/mL
- selectivity ratio [31]: > 12
- Ratio [32]: 3
- MIC [33]: 1.25 µM
- MIC [34]: 2.5 µM
- fractional inhibitory concentration index (FICI) [35]: 2
- fractional inhibitory concentration index (FICI) [36]: 0.375
- Activity [37]: inactive
- selectivity ratio [38]: > 12
